Read-outs that look alike come from different tables or passages of the source.
Legend:
Type in all cases: cell-based
[1] = tested on: LS411N cells; assay: DHX9 cellular proliferation assay (CellTiter-Glo), LS411N (CRC-MSI); conditions: Homo sapiens, LS-411N, LS411N, performed at Pharmaron, read-out: LS411N (CRC-MSI-H) Antiproliferative IC50
[2] = tested on: circBRIP1 in HCT116 cells; assay: DHX9 circBRIP1 cellular target engagement TaqMan Multiplex assay (qPCR); conditions: Homo sapiens, read-out: DHX9 Cellular Target Engagement EC50
[3] = tested on: NCI-H747 cells; assay: DHX9 cellular proliferation assay (CellTiter-Glo), NCI-H747 (CRC-MSS); conditions: Homo sapiens, performed at Pharmaron, read-out: H747 (CRC-MSS) Antiproliferative IC50
[4] = tested on: circBRIP1 in HCT116 cells; assay: DHX9 circBRIP1 cellular target engagement SYBR Green assay (qPCR); conditions: Homo sapiens, HCT-116, circBRIP1, HCT116 cells; ^+ SyBr assay was used; read-out: DHX9 Cellular Target Engagement EC50
[5] = HCT-116, circBRIP1, HCT116 cells, * Taqman assay was used
[6] = HCT-116, 72 h, circBRIP1, HCT116 cells, 72 hours, Taqman assay (marked *)

| SMILES | IC50 [1] | EC50 [2, 5] | IC50 ([3]; NCI-H747, NCI-H747) | IC50 ([1]; CRC-MSI-H) | EC50 [2, 6] | IC50 ([3]; NCI-H747, NCI-H747, CRC-MSS) | EC50 [4] |
| --- | --- | --- | --- | --- | --- | --- | --- |
| Cc1sc(C(=O)Nc2cc(Cl)cc(NS(C)(=O)=O)c2)cc1-c1ncccc1OC(C)c1cc(F)cc(F)c1 (single isomer, unassigned) [Example 633] | 10.4 nM | 46 nM | 6460 nM |  |  |  |  |
| CCS(=O)(=O)Nc1cc(Cl)cc(NC(=O)c2cc(-c3ccc(F)cn3)c(C)s2)c1 [Example 346] |  |  |  | 71.6 nM | 43.8 nM | 7340 nM |  |
| CCS(=O)(=O)Nc1cc(Cl)cc(NC(=O)c2cc(-c3ncc(F)cc3F)c(C)s2)c1 [Example 347] |  |  |  | 160 nM | 96.8 nM | > 10000 nM |  |
| Cc1sc(C(=O)Nc2cc(Cl)cc(NS(C)(=O)=O)c2)cc1-c1ncc(F)cc1F [Example 349] |  |  |  | 154 nM | 58.2 nM | > 10000 nM |  |
| COc1cc(F)cnc1-c1cc(C(=O)Nc2cc(Cl)cc(NS(C)(=O)=O)c2)sc1C [Example 351] |  |  |  | 82 nM | 28.6 nM | > 10000 nM |  |
| COc1ccc(-c2cc(C(=O)Nc3cc(Cl)cc(NS(C)(=O)=O)c3)sc2C)nc1 [Example 352] |  |  |  | 50 nM | 21 nM | 8750 nM |  |
| CCS(=O)(=O)Nc1cc(Cl)cc(NC(=O)c2cc(-c3ncc(OC)cn3)c(C)s2)c1 [Example 353] |  |  |  | 111 nM | 94 nM | 8490 nM |  |
| CCS(=O)(=O)Nc1cc(Cl)cc(NC(=O)c2cc(-c3ncc(F)cc3OC)c(C)s2)c1 [Example 354] |  |  |  | 71.5 nM | 34.5 nM | 8060 nM |  |
| COc1cnc(-c2cc(C(=O)Nc3cc(Cl)cc(NS(C)(=O)=O)c3)sc2C)c(F)c1 [Example 358] |  |  |  | 129 nM | 53.3 nM | 6870 nM |  |
| CCS(=O)(=O)Nc1cc(Cl)cc(NC(=O)c2cc(-c3ncc(OC)cc3F)c(C)s2)c1 [Example 360] |  |  |  | 235 nM | 52.1 nM | 7070 nM |  |
| COc1cnc(-c2cc(C(=O)Nc3cc(Cl)cc(NS(C)(=O)=O)c3)sc2C)c(C)c1 [Example 361] |  |  |  | 361 nM | 43.2 nM | 6250 nM |  |
| CCOc1cnc(-c2cc(C(=O)Nc3cc(Cl)cc(NS(=O)(=O)CC)c3)sc2C)nc1 [Example 365] |  |  |  | 116 nM | 33.9 nM | > 10000 nM |  |
| CS(=O)(=O)Nc1cc(Cl)cc(NC(=O)c2cc(-c3ncc(C(F)(F)F)cn3)cs2)c1 [Example 369] |  |  |  | 227 nM | 86.8 nM | > 10000 nM |  |
| Cc1cc(C#N)cnc1-c1cc(C(=O)Nc2cc(Cl)cc(NS(C)(=O)=O)c2)sc1C [Example 376] |  |  |  | 303 nM | 69.9 nM | > 10000 nM |  |
| Cc1sc(C(=O)Nc2cc(Cl)cc(NS(C)(=O)=O)c2)cc1-c1ccc(C#N)cn1 [Example 377] |  |  |  | 140 nM | 37.4 nM | > 10000 nM |  |
| CC(C)(C)Oc1cnc(-c2csc(C(=O)Nc3cc(Cl)cc(NS(C)(=O)=O)c3)c2)nc1 [Example 379] |  |  |  | 83 nM | 56.6 nM | 4710 nM |  |
| Cc1sc(C(=O)Nc2cc(Cl)cc(NS(C)(=O)=O)c2)cc1-c1ccc(OC(C)(C)C)cn1 [Example 380] |  |  |  | 54.1 nM | 25.1 nM | 3620 nM |  |
| Cc1sc(C(=O)Nc2cc(Cl)cc(NS(C)(=O)=O)c2)cc1-c1ncc(OC(C)(C)C)cc1F [Example 381] |  |  |  | 347 nM | 183 nM | 965 nM |  |
| Cn1cc(C(=O)Nc2cc(Cl)cc(NS(C)(=O)=O)c2)cc1-c1ccc(N2CCCC2)cn1 [Example 402] | 167 nM | 68.6 nM | 7050 nM |  |  |  |  |
| CCS(=O)(=O)Nc1cc(Cl)cc(NC(=O)c2cc(-c3ccc(N4CC(F)(F)C4)cn3)n(C)c2)c1 [Example 403] | 230 nM | 100 nM | 7410 nM |  |  |  |  |

| SMILES | IC50 [1] | EC50 [2, 5] | IC50 ([3]; NCI-H747, NCI-H747) | IC50 ([1]; CRC-MSI-H) | EC50 [2, 6] | IC50 ([3]; NCI-H747, NCI-H747, CRC-MSS) | EC50 [4] |
| --- | --- | --- | --- | --- | --- | --- | --- |
| COC1CN(c2cnc(-n3cc(C(=O)Nc4cc(Cl)cc(NS(C)(=O)=O)c4)cc3C)nc2)C1 [Example 404] | 138 nM | 35.6 nM | > 10000 nM |  |  |  |  |
| Cc1cc(C(=O)Nc2cc(Cl)cc(NS(C)(=O)=O)c2)cn1-c1ccc(N2CC3COCC3C2)cn1 (stereo not drawn) [Example 405] | 116 nM | 26.1 nM | > 10000 nM |  |  |  |  |
| Cc1cc(C(=O)Nc2cc(Cl)cc(NS(C)(=O)=O)c2)cn1-c1ncc(N2CC3(C2)CC(F)(F)C3)cn1 [Example 413] | 138 nM | 42.1 nM | 2170 nM |  |  |  |  |
| Cc1cc(C(=O)Nc2cc(Cl)cc(NS(C)(=O)=O)c2)cn1-c1ncc(N2CC(F)(F)C2)cc1C#N [Example 415] | 502 nM | 68.9 nM | 7150 nM |  |  |  |  |
| Cn1cc(C(=O)Nc2cc(Cl)cc(NS(C)(=O)=O)c2)cc1-c1ccc(N2CC(F)C2)cn1 [Example 539] | 98.3 nM |  | 7010 nM |  |  |  | 16.2 nM |
| COc1cc(F)cnc1-c1cc(C(=O)Nc2cc(Cl)cc(NS(C)(=O)=O)c2)cn1C [Example 568, N-(3-chloro-5-methanesulfonamidophenyl)-5-(5-fluoro-3-methoxypyridin-2-yl)-1-methylpyrrole-3-carboxamide] | 349 nM |  | > 10000 nM |  |  |  | 57.5 nM |
| Cn1cc(C(=O)Nc2cc(Cl)cc(NS(C)(=O)=O)c2)cc1-c1ncc(C(F)(F)F)cn1 [Example 571] | 159 nM |  | 3560 nM |  |  |  | 62.1 nM |
| CCOc1ccc(-c2cc(C(=O)Nc3cc(Cl)cc(NS(C)(=O)=O)c3)cn2C)nc1 [Example 572] | 144 nM |  | > 10000 nM |  |  |  | 55.1 nM |
| COc1ccc(-c2cc(C(=O)Nc3cc(Cl)cc(NS(C)(=O)=O)c3)cn2C)nc1 [Example 573] | 103 nM |  | > 10000 nM |  |  |  | 106 nM |
| COCc1ccc(-c2cc(C(=O)Nc3cc(Cl)cc(NS(C)(=O)=O)c3)cn2C)nc1 [Example 574] | 92.2 nM |  | > 10000 nM |  |  |  | 39.5 nM |
| Cn1cc(C(=O)Nc2cc(Cl)cc(NS(C)(=O)=O)c2)cc1-c1ncccc1OCC1CC1 [Example 584] | 122 nM |  | > 10000 nM |  |  |  | 42.1 nM |
| Cn1cc(C(=O)Nc2cc(Cl)cc(NS(C)(=O)=O)c2)cc1-c1ccc(N2CC(F)(F)C2)cn1 [Example 595, N-(3-chloro-5-methanesulfonamidophenyl)-5-[5-(3,3-difluoroazetidin-1-yl)pyridin-2-yl]-1-methyl-1H-pyrrole-3-carboxamide] | 167 nM |  | 7400 nM |  |  |  | 35.2 nM |
| CS(=O)(=O)Nc1cc(Cl)cc(NC(=O)c2cc(-c3ncccc3OCc3cncc(F)c3)cs2)c1 [Example 620, N-(3-chloro-5-methanesulfonamidophenyl)-4-{3-[(5-fluoropyridin-3-yl)methoxy]pyridin-2-yl}thiophene-2-carboxamide] | 26.4 nM |  | > 10000 nM |  |  |  | 6.2 nM |
| Cc1sc(C(=O)Nc2cc(Cl)cc(NS(C)(=O)=O)c2)cc1-c1ncccc1OCc1cncc(F)c1 [Example 621] | 8.7 nM |  | > 10000 nM |  |  |  | 2 nM |
| COCc1cnc(-c2cc(C(=O)Nc3cc(Cl)cc(NS(C)(=O)=O)c3)cn2C)nc1 [Example 690] | 183 nM |  | > 10000 nM |  |  |  | 55.7 nM |
| Cc1cc(C(=O)Nc2cc(Cl)cc(NS(C)(=O)=O)c2)cn1-c1ncccc1OCC1CC1 [Example 713] | 105 nM |  | > 10000 nM |  |  |  | 105 nM |
| CS(=O)(=O)Nc1cc(Cl)cc(NC(=O)c2cnn(-c3c(F)cccc3OCc3cncc(F)c3)c2)c1 [Example 718] | 114 nM |  | > 10000 nM |  |  |  | 137 nM |
| CS(=O)(=O)Nc1cc(Cl)cc(NC(=O)c2cnn(-c3ccc(N4CC5(COC5)C4)cc3OCc3cccc(F)c3)c2)c1 [Example 722] | 50.6 nM |  | > 10000 nM |  |  |  | 51.1 nM |
| CS(=O)(=O)Nc1cc(Cl)cc(NC(=O)c2cc(CO)n(-c3ncccc3OCc3cncc(F)c3)c2)c1 [Example 723] | 733 nM |  | > 10000 nM |  |  |  | 73.5 nM |
